# Experimental data from patent US5506361A, “Imidazobenzoquinones and composition for preventing or treating hypertension or congestive heart failure containing the same” (TheUpjohn Company, priority 1991, dated 1996).
# Key:
# [1] = target: angiotensin II mesenteric artery receptor; test: In vitro angiotensin II mesenteric artery receptor binding assay; conditions: test 1); 125I-Ang II 0.2 nM, rat mesenteric artery membrane fraction, 22° C., 90 min
# Experimental: 1) In vitro angiotensin II mesenteric artery receptor binding assay
# According to the method (1) by Gunther et at., a membrane fraction was prepared from mesenteric artery of a male rat, 50 μg protein equivalent thereof and 0.2 nM ^125 I-Ang II as well as various concentrations of test compounds were incubated at 22° C. for 90 min. in 200 μl reaction volume of incubation buffer (50 mM Tris-HCl, 120 mM NaCl, 5 mM MgCl2, 0.25% bovine serum albumin, pH7.2). This was cooled, and the reaction was stopped by addition of ice-cooled phosphate buffer (10 mM phosphate, 140 mM NaCl, pH7.4, hereinafter referred to as PBS), and then the reaction solution was filtered through a glass fiber filter (Whatman CF/B), the filter was washed, dried, and then the radioactivity of captured ^125 I-angiotensin II which bound to the receptor was measured by γ-counter. Non-specific binding mount was obtained from the reaction in the presence of 1 μM of unlabeled angiotensin II. The test compound was tested at the concentration of 0.01 to 1 μM, and those that inhibited more than 50% of total specific binding mount at 1 μM was determined as an active compound, and 50% inhibiting concentration (IC50) was obtained [see Gunther, S., Gimbrone, M. A. and Alexander, R. W., Circ. Res., 17:278-286, 1980].
# [2] = test system: angiotensin II constriction in isolated rabbit thoracic aorta; test: Antagonism to angiotensin II constriction in an isolated rabbit thoracic aorta; type: cell-based; conditions: test 3); 10^-6 M test compound, 20 min; pA2 = -logKB
# Experimental: 3) Antagonism to angiotensin II constriction in an isolated rabbit thoracic aorta
# A rectangular strip-like sample of thoracic aorta isolated from an anethetized rabbit was prepared, and this was suspended at 2.0 g of loaded tension in a Magnus tube filled with Krebs-Henseleitoid nutrition solution which was well aerated with 95% O2 -5% CO2, and the constriction tension was measured using an isometric transducer. After the tension of the sample at rest became stable, accumulative administration of angiotensin II was carried out to obtain a concentration-action curve. Thereafter, the sample was washed with the same nutrition solution, and then 10^-6 M test compound was treated for 20 min. to obtain again a concentration-action curve of angiotertsin II. The results were obtained as followed: generated maximum tension at the first accumulative administration of angiotensin II was regarded as 100%, and the 50% effective concentration (ED50) was obtained in the presence or absence of the test compound, and pA2 value was calculated according to the following equations:
# pA2 =-logKB KB =C/{(A'/A)-1}
# C: concentration of the test compound (M)
# A': ED50 in the presence of test compound (M)
# A:ED50 in the absence of the test compound (M)
# [3] = test system: blood pressure increasing by angiotensin II; test: Antagonism to blood pressure increasing by angiotensin II in a spine destroyed rat; type: in vivo, Wistar rat; conditions: Rattus norvegicus; test 4); intravenous; 3 μg/kg angiotensin II i.v.; inhibition of blood pressure increase
# Text: 4)Antagonism to blood pressure increasing by angiotensin II in a spine destroyed rat
# Wistar rat anesthetized with pentobarbital was fixed at dorsal position, and a cannula for measuring blood pressure was inserted into sinister arteria carotis communis, and a cannula for administration of the test compound into dexter external jugular vein and a cannula for administration of angiotensin II into sinister external jugular vein, arebilateral nervous vagus was cut, and artificial respiration was carried out. A thin bar made of metal was stabbed into spinal column through sininster orbita to destroy spine. Blood pressure was recorded on polygraph via pressure transducer from an arterial cannula. After blood pressure was stable for more than 30 min., 3μg/kg of angiotensin II was administered intravenously four times every 15 min., and every 5 min. before the administration of angiotensin II from the second admininstration onward, a solvent, a lower dose of the test compound, and a higher dose of the test compound were admininstered intravenously in this order to observe the blood pressure increasing response by angiotensin II. ED50 values were calculated from the inhibiting rate when the first blood pressure increase by angiotensin II was regarded as 100%.
# [4] = target: adrenal cortex angiotensin II receptor; test: In vitro adrenal cortex angiotensin II receptor binding assay; conditions: test 2); membrane fraction from adrenal cortex of male rat
# Experimental: 2) In vitro adrenal cortex angiotensin II receptor binding assay
# According to the method by Capponi et at. (1), angiotensin II receptor binding assay was carried out by preparing a membrane fraction from an adrenal cortex of a male rat and using this as a receptor material in the same manner as in the above-described pharmacological test 1) [see Capponi, A. M. and Catt, K., J. Biol. Chem. 254:5120-5127(1979)].
compound,measurement,setting,value
"CCCCc1nc2c(n1Cc1ccc(-c3ccccc3C(=O)O)cc1)C(=O)c1ccccc1C2=O [Compound No. 1, 1-[(2'-Carboxybiphenyl-4-yl)methyl]-2-n-butyl-1H-naphthimidazol-4,9-dione]",IC50,[1],0.61 µM
same,pA2,[2],6.64
same,ED50,[3],22.6 mg/kg
same,IC50,[4],0.54 µM
"CCCCc1nc2c(n1Cc1ccc(-c3ccccc3C(=O)OC(C)(C)C)cc1)C(=O)c1ccccc1C2=O [Compound No. 2, 1-[(2'-t-Butoxycarbonylbiphenyl-4-yl)methyl]-2-n-butyl-1H-naphthimidazol-4,9-dione]",IC50,[1],0.05 µM
same,pA2,[2],7.60
same,IC50,[4],0.048 µM
